Earlier results on three substances are cited in patent US20190038750A1, “TRIPLE ANTIBIOTIC CATIONIC OINTMENT” (priority 2017, published 2019).

For data set [1], the system named is fungus.
Data set [2] deals with bacteria. The following applies: very low concentrations.
For data set [3] the following is noted: in vivo.
Data set [4] has as its system Klebsiella pneumoniae (carbapenem-resistant enterobacteriaceae).
The test system of data set [5] is Escherichia coli.
The subject of data set [6] is Pseudomonas aeruginosa.
The subject of data set [7] is Staphylococcus aureus (also the methicillin-resistant type, MRSA).
Data set [8] deals with Candida albicans (yeast).
Data set [9] concerns Aspergillus brasiliensis (mold).
In data set [10] the test system is vancomycin-resistant enterococci.

As for Polyaminopropylbiguanide [PAPB], in data set [1], the fungicidal entry was “fungicidal”. Further, in [2], the bactericidal concentration was 10 mg/1.
As for benzalkonium chloride, the burning sensation result in data set [3] is “does not cause a burning sensation”.
On to polyhexamethylenebiguanide [PHMB], for which the “effective against Klebsiella pneumoniae (carbapenem-resistant)” value in [4] is “effective”. Moreover, the “effective against Escherichia coli” value in data set [5] is “effective”. For the same substance, the “effective against Pseudomonas aeruginosa” value in data set [6] is “effective”. Besides, in data set [7], the “effective against Staphylococcus aureus (also MRSA)” value is on record as “effective”. For the same substance, the “effective against Candida albicans” value in data set [8] is recorded as “effective”. In addition, the “effective against Aspergillus brasiliensis” value in [9] is “effective”. Moreover, the “effective against vancomycin-resistant enterococci” value in data set [10] is “effective”.
